The values below come from the supplement of paper PMC11368000.

The test system of one test is 1309 (donor line of iPSC-derived cardiomyocytes). Nature of the test: POD (EC95) for loss of peak frequency (asystole) vs vehicle; higher = less potent (higher point of departure). The note with it: exposure time: 90 min. On the procedure: (§1)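 Human iPSC-derived cardiomyocytes from 16 donors were exposed for 90 min at 37 °C to each PFAS at 0.1, 1, 10 and 100 µM in 0.5% DMSO, 384-well plates. Kinetic Ca2+ flux (FLIPR) and Hoechst nuclei counts were normalised to vehicle wells and fitted with a hierarchical Bayesian Hill model to give donor-specific PODs: EC05 for beat-rate increase or decrease and for decay-to-rise ratio increase (QT proxy), EC95 for peak-frequency loss (asystole), EC10 for total cell number loss. 0.03 µM is the lower bound.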
As to `NC(=O)C(F)(F)C(F)(F)C(F)(F)C(F)(F)C(F)(F)C(F)(F)C(F)(F)F` [Perfluorooctanamide], the POD vs vehicle is above 100 µM.

For the molecule `N=C(N)C(F)(F)C(F)(F)C(F)(F)C(F)(F)C(F)(F)C(F)(F)C(F)(F)F` [Perfluorooctanamidine], the POD vs vehicle was above 100 µM.

As to `O=S(=O)(O)C(F)(F)C(F)(F)C(F)(F)C(F)(F)C(F)(F)C(F)(F)C(F)(F)C(F)(F)F` [Perfluorooctanesulfonic_acid], the POD vs vehicle was above 100 µM.

As to `O=C(O)C(F)(F)C(F)(F)C(F)(F)C(F)(F)C(F)(F)C(F)(F)C(F)(F)F` [Perfluorooctanoic_acid], the POD vs vehicle is above 100 µM.

`O=C(O)C(F)(F)C(F)(F)C(F)(F)C(F)(F)F` [Perfluoropentanoic_acid] had a POD vs vehicle above 100 µM.

In the case of `O=C(O)C(F)(F)C(F)(F)F` [Perfluoropropanoic_acid], the POD vs vehicle was above 100 µM.

For the molecule `O=C(O)C(F)(F)C(F)(F)C(F)(F)C(F)(F)C(F)(F)C(F)(F)C(F)(F)C(F)(F)C(F)(F)C(F)(F)F` [Perfluoroundecanoic_acid], the POD vs vehicle was above 100 µM.

`O=S(=O)([O-])C(F)(F)C(F)(F)C(F)(F)C(F)(F)F.[K+]` [Potassium_perfluorobutanesulfonate] returned a POD vs vehicle above 100 µM.

The next test has as its system 1118 (donor line of iPSC-derived cardiomyocytes). Described as above. As to conditions: exposure time: 90 min. On the procedure: as §1
`O=C(O)C(F)(F)C(F)(F)C(F)(F)F` [Perfluorobutanoic_acid] yielded a POD vs vehicle above 100 µM.

In the case of `O=C(O)C(F)(F)C(F)(F)C(F)(F)C(F)(F)C(F)(F)C(F)(F)C(F)(F)C(F)(F)C(F)(F)F` [Perfluorodecanoic_acid], the POD vs vehicle is 9.5 µM.

Molecule `O=C(O)C(F)(F)C(F)(F)C(F)(F)C(F)(F)C(F)(F)C(F)(F)F` [Perfluoroheptanoic_acid] had a POD vs vehicle above 100 µM.

Consider `NS(=O)(=O)C(F)(F)C(F)(F)C(F)(F)C(F)(F)C(F)(F)C(F)(F)F` [Perfluorohexanesulfonamide], for which the POD vs vehicle amounted to 7.84 µM.

As for `O=S(=O)(O)C(F)(F)C(F)(F)C(F)(F)C(F)(F)C(F)(F)C(F)(F)F` [Perfluorohexanesulfonic_acid], the POD vs vehicle was above 100 µM.

`O=C(O)C(F)(F)C(F)(F)C(F)(F)C(F)(F)C(F)(F)F` [Perfluorohexanoic_acid] displayed a POD vs vehicle above 100 µM.

Molecule `O=C(O)C(F)(F)C(F)(F)C(F)(F)C(F)(F)C(F)(F)C(F)(F)C(F)(F)C(F)(F)F` [Perfluorononanoic_acid] returned a POD vs vehicle of 99.4 µM.

Consider `NC(=O)C(F)(F)C(F)(F)C(F)(F)C(F)(F)C(F)(F)C(F)(F)C(F)(F)F` [Perfluorooctanamide], for which the POD vs vehicle is above 100 µM.

As for `N=C(N)C(F)(F)C(F)(F)C(F)(F)C(F)(F)C(F)(F)C(F)(F)C(F)(F)F` [Perfluorooctanamidine], the POD vs vehicle turned out to be 25.6 µM.

As to `O=S(=O)(O)C(F)(F)C(F)(F)C(F)(F)C(F)(F)C(F)(F)C(F)(F)C(F)(F)C(F)(F)F` [Perfluorooctanesulfonic_acid], the POD vs vehicle was above 100 µM.

For the molecule `O=C(O)C(F)(F)C(F)(F)C(F)(F)C(F)(F)C(F)(F)C(F)(F)C(F)(F)F` [Perfluorooctanoic_acid], the POD vs vehicle is above 100 µM.

As for `O=C(O)C(F)(F)C(F)(F)C(F)(F)C(F)(F)F` [Perfluoropentanoic_acid], the POD vs vehicle was above 100 µM.

`O=C(O)C(F)(F)C(F)(F)F` [Perfluoropropanoic_acid] displayed a POD vs vehicle above 100 µM.

In turn, `O=C(O)C(F)(F)C(F)(F)C(F)(F)C(F)(F)C(F)(F)C(F)(F)C(F)(F)C(F)(F)C(F)(F)C(F)(F)F` [Perfluoroundecanoic_acid] showed a POD vs vehicle above 100 µM.

Consider `O=S(=O)([O-])C(F)(F)C(F)(F)C(F)(F)C(F)(F)F.[K+]` [Potassium_perfluorobutanesulfonate], for which the POD vs vehicle is above 100 µM.

The next test deals with 1531 (donor line of iPSC-derived cardiomyocytes). The description is as above. The note with it: exposure time: 90 min. On the procedure: as §1
Molecule `O=C(O)C(F)(F)C(F)(F)C(F)(F)F` [Perfluorobutanoic_acid] had a POD vs vehicle above 100 µM.

Molecule `O=C(O)C(F)(F)C(F)(F)C(F)(F)C(F)(F)C(F)(F)C(F)(F)C(F)(F)C(F)(F)C(F)(F)F` [Perfluorodecanoic_acid] yielded a POD vs vehicle above 100 µM.

`O=C(O)C(F)(F)C(F)(F)C(F)(F)C(F)(F)C(F)(F)C(F)(F)F` [Perfluoroheptanoic_acid] registered a POD vs vehicle above 100 µM.

In the case of `NS(=O)(=O)C(F)(F)C(F)(F)C(F)(F)C(F)(F)C(F)(F)C(F)(F)F` [Perfluorohexanesulfonamide], the POD vs vehicle stood at 40.8 µM.

The molecule `O=S(=O)(O)C(F)(F)C(F)(F)C(F)(F)C(F)(F)C(F)(F)C(F)(F)F` [Perfluorohexanesulfonic_acid] yielded a POD vs vehicle above 100 µM.

With `O=C(O)C(F)(F)C(F)(F)C(F)(F)C(F)(F)C(F)(F)F` [Perfluorohexanoic_acid], the POD vs vehicle is above 100 µM.

For `O=C(O)C(F)(F)C(F)(F)C(F)(F)C(F)(F)C(F)(F)C(F)(F)C(F)(F)C(F)(F)F` [Perfluorononanoic_acid], the POD vs vehicle is above 100 µM.

`NC(=O)C(F)(F)C(F)(F)C(F)(F)C(F)(F)C(F)(F)C(F)(F)C(F)(F)F` [Perfluorooctanamide] gave a POD vs vehicle above 100 µM.

`N=C(N)C(F)(F)C(F)(F)C(F)(F)C(F)(F)C(F)(F)C(F)(F)C(F)(F)F` [Perfluorooctanamidine] registered a POD vs vehicle above 100 µM.

`O=S(=O)(O)C(F)(F)C(F)(F)C(F)(F)C(F)(F)C(F)(F)C(F)(F)C(F)(F)C(F)(F)F` [Perfluorooctanesulfonic_acid] displayed a POD vs vehicle above 100 µM.

As for `O=C(O)C(F)(F)C(F)(F)C(F)(F)C(F)(F)C(F)(F)C(F)(F)C(F)(F)F` [Perfluorooctanoic_acid], the POD vs vehicle is above 100 µM.

`O=C(O)C(F)(F)C(F)(F)C(F)(F)C(F)(F)F` [Perfluoropentanoic_acid]: the POD vs vehicle is above 100 µM.

The molecule `O=C(O)C(F)(F)C(F)(F)F` [Perfluoropropanoic_acid] displayed a POD vs vehicle above 100 µM.

In turn, `O=C(O)C(F)(F)C(F)(F)C(F)(F)C(F)(F)C(F)(F)C(F)(F)C(F)(F)C(F)(F)C(F)(F)C(F)(F)F` [Perfluoroundecanoic_acid] gave a POD vs vehicle above 100 µM.

With `O=S(=O)([O-])C(F)(F)C(F)(F)C(F)(F)C(F)(F)F.[K+]` [Potassium_perfluorobutanesulfonate], the POD vs vehicle is above 100 µM.
